# Source: patent US9145354B2, “Pharmaceutical compounds” (priority 2011, dated 2015)
# Read-outs that look alike come from different tables or passages of the source.
# Molecular target: full length NS3/4a (Hepatitis C virus genotype 1b (isolate BK) (HCV), UniProt P26663)
# Test: NS3 Protease Assay (Example A), FRET-based
# Assay type: biochemical
# How it was run: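 Full-length NS3/4a, made in-house, with an NS4A/B-derived peptide substrate carrying QXL520 quencher and 5-FAMsp fluorophore. Buffer 50 mM Tris pH8, 20 mM DTT, 1% CHAPS, 10% glycerol, 5% DMSO. Fluorescence followed 30 min at room temperature; IC50 from initial rates of replicate curves.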
# [1] = HCV NS3 protease assay, full length NS3/4a, read-out: Assay A IC50 (μM) average
# [2] = read-out: IC50 against the protease activity of the full length NS3/4a
# [3] = stated as IC50 less than 30 μM or at least 40% inhibition at a concentration of 100 μM, read-out: IC50 against the protease activity of the full length NS3/4a
# Sequence of full length NS3/4a (P26663 1027-1657): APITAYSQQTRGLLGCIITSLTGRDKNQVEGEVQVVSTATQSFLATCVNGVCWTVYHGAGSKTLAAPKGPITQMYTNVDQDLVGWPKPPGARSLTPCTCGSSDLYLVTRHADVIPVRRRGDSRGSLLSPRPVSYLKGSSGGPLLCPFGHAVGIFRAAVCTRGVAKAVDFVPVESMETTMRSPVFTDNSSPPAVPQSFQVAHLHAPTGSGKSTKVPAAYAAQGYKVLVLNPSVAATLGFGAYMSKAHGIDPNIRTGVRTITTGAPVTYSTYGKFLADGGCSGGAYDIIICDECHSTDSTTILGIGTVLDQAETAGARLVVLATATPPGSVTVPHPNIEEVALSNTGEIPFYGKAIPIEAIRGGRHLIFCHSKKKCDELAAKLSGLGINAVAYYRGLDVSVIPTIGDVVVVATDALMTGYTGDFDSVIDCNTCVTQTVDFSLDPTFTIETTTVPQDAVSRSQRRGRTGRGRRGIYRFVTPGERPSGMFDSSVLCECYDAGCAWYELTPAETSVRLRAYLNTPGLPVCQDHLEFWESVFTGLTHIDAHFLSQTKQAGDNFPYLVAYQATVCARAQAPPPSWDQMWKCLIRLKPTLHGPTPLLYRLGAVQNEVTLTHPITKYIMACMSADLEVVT
Compound,IC50 [1] [µM],IC50 [2] [µM],also measured
"C[C@H](CC(N)=O)N[C@@H](c1ccc(Cl)c(C(=O)c2ccc(N)cn2)c1F)C1CC1 [Example 254, (3R)-3-{[(R)-{3-[(5-aminopyridin-2-yl)carbonyl]-4-chloro-2-fluorophenyl}(cyclopropyl)methyl]amino}butanamide]",1.8,1 to 5,
"C=CC[C@@H](N[C@H](C)CC(N)=O)c1ccc(Cl)c(C(=O)c2ccc(N)nc2)c1F [Example 257, (3R)-3-{[(1R)-1-{3-[(6-aminopyridin-3-yl)carbonyl]-4-chloro-2-fluorophenyl}but-3-en-1-yl]amino}butanamide]",2,1 to 5,
"CC[C@@H](N[C@H](C)CC(N)=O)c1ccc(Cl)c(C(=O)c2ccc(N)c(C)c2)c1F [Example 260, (3R)-3-{[(1R)-1-{3-[(4-amino-3-methylphenyl)carbonyl]-4-chloro-2-fluorophenyl}propyl]amino}butanamide]",,,inhibition at 0.3 µM (@ 0.3 uM): 39%
"C[C@H](CC(N)=O)N[C@@H](c1ccc(Cl)c(C(=O)c2ccc(CO)cc2)c1F)C1CC1 [Example 264, (3R)-3-{[(R)-(4-chloro-2-fluoro-3-{[4-(hydroxymethyl)phenyl]carbonyl}phenyl)(cyclopropyl)methyl]amino}butanamide]",0.61,,
"CC[C@@H](N[C@H](C)CC(N)=O)c1ccc(Cl)c(C(=O)c2ccc(N)nc2)c1F [Example 266, (3R)-3-{[(1R)-1-{3-[(6-aminopyridin-3-yl)carbonyl]-4-chloro-2-fluorophenyl}(2,2,3,3,3-deutero)propyl]amino}butanamide]",1.1,1 to 5,
"C[C@H](CC(N)=O)N[C@@H](c1ccc(Cl)c(C(=O)c2ccc3c(c2)OCC(=O)N3)c1F)C1CC1 [Example 271, (3R)-3-{[(R)-{4-chloro-2-fluoro-3-[(3-oxo-3,4-dihydro-2H-1,4-benzoxazin-7-yl)carbonyl]phenyl}(cyclopropyl)methyl]-amino}butanamide]",1.1,1 to 5,
"CC(C)C[C@@H](N[C@H](C)CC(N)=O)c1ccc(Cl)c(C(=O)c2ccc(N)nc2)c1F [Example 272, (3R)-3-{[(1R)-1-{3-[(6-aminopyridin-3-yl)carbonyl]-4-chloro-2-fluorophenyl}-3-methylbutyl]amino} butanamide]",,,inhibition at 3 µM: 43%; IC50 [3]: < 30 µM
"CC[C@@H](N[C@H](C)CC(N)=O)c1ccc(OC)c(C(=O)c2ccc(N)c(C)c2)c1F [Example 274, (3R)-3-{[(1R)-1-{3-[(4-amino-3-methylphenyl)carbonyl]-2-fluoro-4-methoxyphenyl}propyl]amino}butanamide]",0.56,,
"CC[C@@H](N[C@H](C)CC(N)=O)c1ccc(OC)c(C(=O)c2cccc(C#N)c2)c1F [Example 277, (3R)-3-{[(1R)-1-{3-[(3-cyanophenyl)carbonyl]-2-fluoro-4-methoxyphenyl}propyl]amino}butanamide]",0.73,,
"C[C@H](CC(N)=O)N[C@H](CC1CC1)c1ccc(Cl)c(C(=O)c2ccc(N)nc2)c1F [Example 279, (3R)-3-{[(1R)-1-{3-[(6-aminopyridin-3-yl)carbonyl]-4-chloro-2-fluorophenyl}-2-cyclopropylethyl]amino}butanamide]",0.39,,
"C[C@@H](CC(N)=O)NCc1ccc(Cl)c(C(=O)c2ccccc2)c1F [Example 281, (3S)-3-{[(3-benzoyl-4-chloro-2-fluorophenyl)methyl]amino}butanamide]",0.45,,
"CC[C@@H](NC1CCOCC1)c1ccc(Cl)c(C(=O)c2cccnc2)c1F [Example 283, N-[(1R)-1-{4-chloro-2-fluoro-3-[(pyridin-3-yl)carbonyl]phenyl}propyl]oxan-4-amine]",,,IC50 [3]: < 30 µM
CC[C@@H](NCC1CC1)c1ccc(Cl)c(C(=O)c2cccnc2)c1F [Example 284],2.7,1 to 5,
"CC[C@@H](NC(C)C)c1ccc(Cl)c(C(=O)c2cccnc2)c1F [Example 285, [(1R)-1-{4-chloro-2-fluoro-3-[(pyridin-3-yl)carbonyl]phenyl}propyl] (propan-2-yl)amine]",2,1 to 5,
"CC[C@H](NC(=O)C1=CCNC1)c1ccc(Cl)c(C(=O)c2cccnc2)c1F [Example 286, N-[(1S)-1-{4-chloro-2-fluoro-3-[(pyridin-3-yl)carbonyl]phenyl}propyl]-2,5-dihydro-1H-pyrrole-3-carboxamide]",0.13,< 1,
"CC[C@H](NC(=O)C1=CCCNC1)c1ccc(Cl)c(C(=O)c2cccnc2)c1F [Example 287, N-[(1S)-1-{4-chloro-2-fluoro-3-[(pyridin-3-yl)carbonyl]phenyl}propyl]-1,2,5,6-tetrahydropyridine-3-carboxamide]",0.14,< 1,
"CC[C@@H](NCc1cnc[nH]1)c1ccc(Cl)c(C(=O)c2cccnc2)c1F [Example 288, [(1R)-1-{4-chloro-2-fluoro-3-[(pyridin-3-yl)carbonyl]phenyl}propyl](1H-imidazol-5-ylmethyl)amine]",1.4,1 to 5,

Compound,IC50 [1] [µM],IC50 [2] [µM],also measured
"CC[C@@H](NC)c1ccc(Cl)c(C(=O)c2cccnc2)c1F [Example 289, [(1R)-1-{4-chloro-2-fluoro-3-[(pyridin-3-yl)carbonyl]phenyl}propyl](methyl)amine]",2.4,1 to 5,
"CC[C@@H](NCCF)c1ccc(Cl)c(C(=O)c2cccnc2)c1F [Example 290, [(1R)-1-{4-chloro-2-fluoro-3-[(pyridin-3-yl)carbonyl]phenyl}propyl] (2-fluoroethyl)amine]",14,,IC50 [3]: < 30 µM
"CC[C@@H](NC(=O)C1=CCNC1)c1ccc(Cl)c(C(=O)c2cccnc2)c1F [Example 291, N-[(1R)-1-{4-chloro-2-fluoro-3-[(pyridin-3-yl)carbonyl]phenyl}propyl]-2,5-dihydro-1H-pyrrole-3-carboxamide]",,1 to 5,inhibition at 3 µM: 51%
"CC[C@@H](N[C@@H]1CCOC1)c1ccc(Cl)c(C(=O)c2cccnc2)c1F [Example 292, (3R)-N-[(1R)-1-{4-chloro-2-fluoro-3-[(pyridin-3-yl)carbonyl]phenyl}propyl] oxolan-3-amine]",,,inhibition at 10 µM: 4%
"CC[C@@H](N[C@H]1CCOC1)c1ccc(Cl)c(C(=O)c2cccnc2)c1F [Example 293, (3S)-N-[(1R)-1-{4-chloro-2-fluoro-3-[(pyridin-3-yl)carbonyl]phenyl}propyl] oxolan-3-amine]",,,inhibition at 10 µM: 11%
"CC[C@H](NC(=O)C1CCCNC1)c1ccc(Cl)c(C(=O)c2cccnc2)c1F (stereo partly drawn) [Example 294, N-[(1S)-1-{4-chloro-2-fluoro-3-[(pyridin-3-yl)carbonyl]phenyl}propyl]piperidine-3-carboxamide]",0.41,< 1,
"CC[C@H](NC(=O)C1CCNC1)c1ccc(Cl)c(C(=O)c2cccnc2)c1F (stereo partly drawn) [Example 295, N-[(1S)-1-{4-chloro-2-fluoro-3-[(pyridin-3-yl)carbonyl]phenyl}propyl] pyrrolidine-3-carboxamide]",,,inhibition at 3 µM: 38%
"CC[C@@H](NC1CC1)c1ccc(Cl)c(C(=O)c2cccnc2)c1F [Example 296, N-[(1R)-1-{4-chloro-2-fluoro-3-[(pyridin-3-yl)carbonyl]phenyl}-propyl]cyclopropanamine]",13,,IC50 [3]: < 30 µM
"CC[C@H](NC(=O)CCN)c1ccc(Cl)c(C(=O)c2cccnc2)c1F [Example 297, 3-amino-N-[(1S)-1-{4-chloro-2-fluoro-3-[(pyridin-3-yl)carbonyl]phenyl}propyl] propanamide]",0.15,< 1,
"CC[C@H](NC(=O)C[C@@H](N)C(C)C)c1ccc(Cl)c(C(=O)c2cccnc2)c1F [Example 298, (3R)-3-amino-N-[(1S)-1-{4-chloro-2-fluoro-3-[(pyridin-3-yl)carbonyl]phenyl}propyl]-4-methylpentanamide]",0.064,< 1,
"CC[C@@H](NCc1cn[nH]c1)c1ccc(Cl)c(C(=O)c2cccnc2)c1F [Example 299, [(1R)-1-{4-chloro-2-fluoro-3-[(pyridin-3-yl)carbonyl]phenyl}propyl] (1H-pyrazol-4-ylmethyl)amine]",,,inhibition at 10 µM: 32%
"CC[C@@H](N[C@H](C)c1cn[nH]c1)c1ccc(Cl)c(C(=O)c2cccnc2)c1F [Example 300, [(1R)-1-{4-chloro-2-fluoro-3-[(pyridin-3-yl)carbonyl]phenyl}propyl] [(1R)-1-(1H-pyrazol-4-yl)ethyl]amine]",,,inhibition at 30 µM (@ 30 uM): 48%; IC50 [3]: < 30 µM
"CC[C@@H](N[C@@H](C)c1cn[nH]c1)c1ccc(Cl)c(C(=O)c2cccnc2)c1F [Example 301, [(1R)-1-{4-chloro-2-fluoro-3-[(pyridin-3-yl)carbonyl]phenyl}propyl] [(1S)-1-(1H-pyrazol-4-yl)ethyl]amine]",,,inhibition at 10 µM: 65%; IC50 [3]: < 30 µM
CC[C@H](NC(=N)N)c1ccc(Cl)c(C(=O)c2cccnc2)c1F [Example 302],1.3,1 to 5,
CC[C@H](NC(=O)CCN)c1ccc(Cl)c(C(=O)c2ccc(N)nc2)c1F [Example 303],0.065,< 1,
"CC[C@@H](N[C@H](C)c1cnc[nH]1)c1ccc(Cl)c(C(=O)c2cccnc2)c1F [Example 304, [(1R)-1-{4-chloro-2-fluoro-3-[(pyridin-3-yl)carbonyl]phenyl}propyl] [(1R)-1-(1H-imidazol-5-yl)ethyl]amine]",4.7,1 to 5,
"CC[C@@H](N[C@@H](C)c1cnc[nH]1)c1ccc(Cl)c(C(=O)c2cccnc2)c1F [Example 305, [(1R)-1-{4-chloro-2-fluoro-3-[(pyridin-3-yl)carbonyl]phenyl}propyl] [(1S)-1-(1H-imidazol-5-yl)ethyl]amine]",1.1,1 to 5,
